{"source": "patent US9730922B2", "about": "“Combined therapy for cystic fibrosis” (I.E.R.F.C. EUROPEAN INSTITUTE FOR CYSTIC FIBROSIS RESEARCH, priority 2012, dated 2017)", "key": {"Cftr^F508del mice": {"tested_on": "Cftr^F508del mice", "assay": "Cftr^F508del mice, CFTR localisation and lung inflammation", "type": "in vivo", "details": "for signs of lung inflammation: wt littermates"}, "ΔF508-CFTR [1]": {"target": "T1, ΔF508-CFTR (Homo sapiens, UniProt P13569, DEL508-508)", "T1 sequence (P13569 with tags, fused parts or gaps DEL508-508)": "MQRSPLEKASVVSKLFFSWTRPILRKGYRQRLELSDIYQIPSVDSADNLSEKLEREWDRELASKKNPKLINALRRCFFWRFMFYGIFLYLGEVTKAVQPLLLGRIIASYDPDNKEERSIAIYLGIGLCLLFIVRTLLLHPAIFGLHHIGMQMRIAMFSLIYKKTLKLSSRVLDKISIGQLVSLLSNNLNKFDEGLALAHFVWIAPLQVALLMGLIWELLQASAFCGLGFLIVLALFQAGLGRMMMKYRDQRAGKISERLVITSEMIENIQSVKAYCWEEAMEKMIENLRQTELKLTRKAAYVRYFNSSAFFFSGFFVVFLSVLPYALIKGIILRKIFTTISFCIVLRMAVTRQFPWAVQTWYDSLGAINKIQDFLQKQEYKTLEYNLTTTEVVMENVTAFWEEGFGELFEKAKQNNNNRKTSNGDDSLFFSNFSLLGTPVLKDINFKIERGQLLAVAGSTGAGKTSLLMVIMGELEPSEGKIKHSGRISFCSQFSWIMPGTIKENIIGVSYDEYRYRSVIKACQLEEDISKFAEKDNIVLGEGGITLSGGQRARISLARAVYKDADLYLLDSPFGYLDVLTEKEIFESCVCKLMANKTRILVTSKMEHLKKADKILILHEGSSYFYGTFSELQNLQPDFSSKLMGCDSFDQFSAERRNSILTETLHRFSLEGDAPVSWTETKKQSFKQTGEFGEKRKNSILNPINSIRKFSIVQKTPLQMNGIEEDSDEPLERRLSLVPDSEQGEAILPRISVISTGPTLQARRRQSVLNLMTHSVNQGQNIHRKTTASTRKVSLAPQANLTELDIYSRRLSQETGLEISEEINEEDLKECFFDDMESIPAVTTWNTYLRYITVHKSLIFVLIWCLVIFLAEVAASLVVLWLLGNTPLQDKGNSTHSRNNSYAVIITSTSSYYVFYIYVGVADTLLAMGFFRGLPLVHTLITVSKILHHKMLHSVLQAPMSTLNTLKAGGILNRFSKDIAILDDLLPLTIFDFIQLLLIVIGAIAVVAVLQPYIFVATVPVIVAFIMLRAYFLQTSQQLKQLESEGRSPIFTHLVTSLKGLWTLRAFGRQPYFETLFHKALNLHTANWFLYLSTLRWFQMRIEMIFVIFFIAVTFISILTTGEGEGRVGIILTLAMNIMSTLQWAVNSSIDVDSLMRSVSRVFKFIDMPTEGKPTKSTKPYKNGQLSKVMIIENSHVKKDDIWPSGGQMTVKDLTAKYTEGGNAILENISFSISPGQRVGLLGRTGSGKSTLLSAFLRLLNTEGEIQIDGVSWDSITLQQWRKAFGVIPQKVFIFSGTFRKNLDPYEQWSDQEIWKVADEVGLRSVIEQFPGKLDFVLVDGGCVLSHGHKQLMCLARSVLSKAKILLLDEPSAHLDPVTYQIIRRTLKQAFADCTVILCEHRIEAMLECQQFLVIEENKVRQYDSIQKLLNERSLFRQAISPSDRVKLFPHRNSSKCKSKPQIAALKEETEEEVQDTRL", "assay": "SPQ halide (iodide) efflux assay in freshly isolated brushed nasal epithelial cells", "type": "cell-based", "design": "Nasal epithelial cells freshly isolated by nasal brushing from 5 CF patients carrying ΔF508/ΔF508 CFTR mutations; endogenous in cells; host or cells: primary brushed nasal epithelial cells from ΔF508/ΔF508 CF patients", "details": "18 h exposure, wash and reculture 24 h with medium; brushed nasal cells from ΔF508/ΔF508 patients", "excerpt": "We examined whether cystamine or EUK-134 (Luciani A, 2010) would induce and sustain functional ΔF508-CFTR expression in freshly isolated brushed nasal epithelial cells from ΔF508/ΔF508 patients (Table 1A). We used primary nasal epithelial cells freshly obtained from ΔF508-CFTR homozygous patients, to directly test the efficacy of these autophagy-rescuing strategies on CFTR function in human airways. We used a fluorescent-based SPQ halide efflux assays (Silvis M R, 2009) to test the response to a short pulse of forskolin (FSK) added together with either of two different CFTR potentiators, genistein or VX-532, (Van Goor F, 2010) and analyzed at least 50 brushed nasal cells for group of treatment in each patient. Freshly isolated brushed nasal epithelial cells were incubated for 18 h with either cystamine or EUK-134 or with the well known CFTR correctors Corr-4a and VRT-325.\nNasal epithelial cells freshly isolated by nasal brushing from 5 CF patients carrying ΔF508/ΔF508 CFTR mutations (see Table 1A) and 5 non-CF age- and sex-matched controls (3 F, mean age 12.5 yrs) were immersed in washing solution (PBS, DTT 2 mM, EDTA 10 mM) at 37° C. for 1 h on thermal shaker, centrifuged at 2,300×g for 20 min and washed in PBS. The isolated cells were maintained in 1 ml MEM Earl's salt L-Glutamine medium supplemented with 10% FBS and the appropriate amount of penicillin/streptomycin.^31 Brushed nasal cells were cultured for 18 h with medium, Vrx-325, Corr-4a (10 μM up to 50 μM) (kindly provided by Cystic Fibrosis Foundation, USA), cystamine (250 μM, Sigma-Aldrich), EUK-134 (50 μg ml^−1, Vinci Biochem), followed by 24 h of incubation with medium alone.\nIodide efflux. […] Changes in CFTR-mediated SPQ fluorescence were monitored at the 445 nm wavelength in response to excitation at 340 nm during perfusion at 37° C. in nitrate buffer (NaI replaced with 130 mM NaNO3) for 10 min with 20 μM forskolin plus 50 μM genistein or 20 μM forskolin plus 20 μM VRX-532 (kindly provided by Cystic Fibrosis Foundation, USA). The peak iodide efflux rate (usually 12 min after forskolin plus genistein or forskolin plus Vrx-532) of treated or untreated cells was calculated in accordance with the Stern-Volmer relationship as follows: (Fo/F)−1=KCQ\nwhere F is the observed fluorescence, Fo is the fluorescence in the absence of a quenching anion, CQ is the concentration of the quenching anion, and K is the Stern-Volmer quench constant. The rates were calculated using SigmaPlot Version 7.1 for each mean fluorescence trace generated from the 50 cells examined per population per coverslip."}, "[2]": {"tested_on": "ΔF508-CFTR homozygous airways", "details": "mice in vivo and human tissues in vitro; cited from earlier work"}, "ΔF508-CFTR [3]": {"target": "T1, ΔF508-CFTR", "assay": "CFTR function in airway epithelial cell lines after pre-treatment, washout and pulse with potentiators", "type": "cell-based", "design": "airway epithelial cell lines carrying ΔF508/ΔF508 CFTR mutations; endogenous in cells", "details": "for enabling the activity of genistein, VX-532 and VX-770 on ΔF508-CFTR: 48 h after withdrawal of the pre-treatment; for enabling the action of CFTR potentiators genistein or VX-532 in stimulating CFTR channel function: pre-treatment 18 h, washout 48 h, single pulse with potentiator, ΔF508/ΔF508 airway epithelial cell lines; for stimulating CFTR function (as potentiator): after pre-treatment with the mentioned molecules followed by 48 h of washout", "procedure": "To provide the rationale for the use of either TG2 inhibitors or drugs that reduce ROS levels as pre-treatment before the administration of CFTR potentiators, another experimental setting was used, where airway epithelial cell lines carrying ΔF508/ΔF508 CFTR mutations were treated with cystamine or EUK-134 or where TG2 was depleted by a small interference RNA approach or where ROS were reduced by the overexpression of the human Manganese Superoxide-dismutase (Mn-SOD).\nAnother experimental approach was used to test the efficacy of other pharmacological agents able to damp down TG2 and/or reduce the levels of ROS. […] These pharmacological agents were tested following the experimental approach of pre-treatment (18 h), washout (48 h) and single pulse with potentiators, in presence or absence of PA-LPS stimulation after pulse with potentiators, following the procedure above described.\nMoreover, the efficacy of other molecules endowed with either ROS inhibiting activity or potentiator activity was tested."}, "[4]": {"tested_on": "ΔF508-CFTR homozygous patients", "details": "cited from earlier work"}, "[5]": {"tested_on": "nasal polyp biopsies from ΔF508/ΔF508 patients", "assay": "ex vivo cultures of nasal polyp mucosal biopsies (confocal microscopy, in situ TG2 activity)", "type": "cell-based, human", "method": "Nasal polyp biopsies from five ΔF508/ΔF508 patients (Table 1B) were treated with cystamine for 18 h, washed and then cultured for further 36 h in the absence of cystamine.\nNext, ΔF508/ΔF508 nasal polyp biopsies were pulsed for 30 min with genistein followed by 4 h incubation with PA-LPS. […] To examine whether pre-treatment with cystamine was effective in enabling the action of genistein in human airways, nasal polyp biopsies were incubated with cystamine or medium for 18 h, then washed and kept in medium alone for 24 h and finally pulsed for 30 min with genistein followed by 4 h PA-LPS.\nHuman samples: ex vivo cultures of nasal polyp mucosal biopsies. Nasal polyp biopsies from 5 ΔF508 homozygous patients undergoing surgical treatment for non-allergic nasal polyposis (see Table 1B) were cultured as previously described,^7,19,32 for 18 h with medium, cystamine or EUK-134, followed by 36 h of incubation with medium alone, and then pulsed for 30 min with medium or genistein followed by 4 h of PA-LPS challenge.\nHuman tissue sections: five-micrometer frozen human lung tissue sections were fixed in acetone for 10 min. The sections were incubated for 2 h at room temperature with the indicated antibodies (Abs). […] The primary Abs were: CFTR 1:100 (CF3, Abcam), CFTR 1:100 (H-182, Santa Cruz Biotecnology) (used on mouse tissue), phospho-Tyr 1:200 (Santa Cruz Biotecnology), p62 1:300 (Sigma). These were followed by incubation with Alexa 488 or 546 secondary antibodies (Molecular Probe, Invitrogen). Data were analyzed under fluorescence examination by a LSM510 Zeiss confocal laser-scanning unit (Carl Zeiss, Germany).\nIn situ detection of TG2 exzyme activity. TG2 activity in tissue samples was detected by incubating unfixed sections with biotinylated monodansylcadaverine for 1 h at 37° C. The incorporation of labeled substrate was visualized by incubation with Alexa 546-conjugated streptavidin (1:100; Molecular Probes, Invitrogen) for 30 min."}, "[6]": {"details": "i.p. 7 days followed by 10 days of vehicle only"}}, "data": [{"compound": "Cn1cnc(N)c2ncnc1-2", "note": "[3-MA]", "values": [{"measurement": "effects of cystamine (ΔF508 re-location, reduced lung inflammation) with co-treatment during the phase of withdrawal", "setting": "Cftr^F508del mice; intraperitoneal treatment during the withdrawal phase", "result": "abrogated"}]}, {"compound": "COc1ccc(Cl)cc1Nc1nc(-c2sc(NC(=O)c3ccccc3)nc2C)cs1", "note": "[Corr-4a]", "values": [{"measurement": "ΔF508-CFTR response to a short pulse of forskolin plus genistein or VX-532 (SPQ halide efflux)", "setting": "ΔF508-CFTR [1]", "result": "only had scarce effects"}]}, {"compound": "COc1cccc(C=NCCN=Cc2cccc(OC)c2[O-])c1[O-].[Cl-].[Mn+3]", "note": "[EUK-134]", "values": [{"measurement": "ΔF508-CFTR response to a short pulse of forskolin plus genistein or VX-532 (SPQ halide efflux)", "setting": "ΔF508-CFTR [1]", "result": "rendered the cells capable of conserving ΔF508-CFTR response"}, {"measurement": "inflammation in ΔF508-CFTR homozygous airways", "setting": "[2]", "result": "blunts inflammation"}, {"measurement": "enabling the activity of genistein, VX-532 and VX-770 on ΔF508-CFTR", "setting": "ΔF508-CFTR [3]", "result": "enables the activity of the CFTR potentiators genistein and VX-532 as well as of the well known CFTR potentiator VX-770"}, {"measurement": "enabling the action of CFTR potentiators genistein or VX-532 in stimulating CFTR channel function", "setting": "ΔF508-CFTR [3]", "result": "similarly effective in enabling the action of CFTR potentiators"}]}, {"compound": "COc1ccc(S(=O)(=O)N2CCN(C(C)c3nc(OC4CCCCC4)c4ccccc4n3)CC2)cc1", "note": "(centres unmarked) [VRT-325]", "values": [{"measurement": "ΔF508-CFTR response to a short pulse of forskolin plus genistein or VX-532 (SPQ halide efflux)", "setting": "ΔF508-CFTR [1]", "result": "only had scarce effects"}]}, {"compound": "Cc1ccc(NC(=O)C2(c3ccc4c(c3)OC(F)(F)O4)CC2)nc1-c1cccc(C(=O)O)c1", "note": "[VX-809]", "values": [{"measurement": "lung function or CF complications", "setting": "[4]", "result": "no improvement"}, {"measurement": "sweat chloride", "setting": "[4]", "result": "modest dose-dependent reductions"}]}, {"compound": "CC(=O)N[C@@H](CS)C(=O)O", "note": "[acetylcysteine]", "values": [{"measurement": "inflammation in ΔF508-CFTR homozygous airways", "setting": "[2]", "result": "blunts inflammation"}]}, {"compound": "O=c1cc(-c2ccc(O)cc2)oc2cc(O)cc(O)c12", "note": "[apigenin]", "values": [{"measurement": "stimulating CFTR function (as potentiator)", "setting": "ΔF508-CFTR [3]", "result": "as effective as genistein in stimulating CFTR function"}]}, {"compound": "NCCSSCCN", "note": "[cystamine]", "values": [{"measurement": "ΔF508-CFTR response to a short pulse of forskolin plus genistein or VX-532 (SPQ halide efflux)", "setting": "ΔF508-CFTR [1]", "result": "rendered the cells capable of conserving ΔF508-CFTR response"}, {"measurement": "reduction of signs of mucosal inflammation (TG2 activation and protein tyrosine phosphorylation)", "setting": "[5]; cystamine 18 h, washed, 36 h washout", "result": "persisted after 36 h of washout"}, {"measurement": "rescue of CFTR at the epithelial surface (confocal microscopy)", "setting": "[5]; cystamine 18 h, washed, 36 h without cystamine", "result": "persisted for 36 h after cystamine withdrawal"}, {"measurement": "inflammation in ΔF508-CFTR homozygous airways", "setting": "[2]", "result": "blunts inflammation"}, {"measurement": "lung inflammation", "setting": "Cftr^F508del mice; daily inhalations of aerosolized 0.2 mg/mouse/day for one week", "result": "reduced lung inflammation"}, {"measurement": "re-location of ΔF508 protein at the respiratory epithelial surface", "setting": "Cftr^F508del mice; [6]", "result": "persisted for 10 days after cystamine withdrawal"}, {"measurement": "reducing lung inflammation", "setting": "Cftr^F508del mice; [6]", "result": "persisted for 10 days after cystamine withdrawal"}, {"measurement": "signs of lung inflammation", "setting": "Cftr^F508del mice", "result": "not effective"}, {"measurement": "enabling the activity of genistein, VX-532 and VX-770 on ΔF508-CFTR", "setting": "ΔF508-CFTR [3]", "result": "enables the activity of the CFTR potentiators genistein and VX-532 as well as of the well known CFTR potentiator VX-770"}, {"measurement": "enabling the action of CFTR potentiators genistein or VX-532 in stimulating CFTR channel function", "setting": "ΔF508-CFTR [3]", "result": "similarly effective in enabling the action of CFTR potentiators"}]}, {"compound": "Oc1cc(O)c2c(c1)O[C@H](c1cc(O)c(O)c(O)c1)[C@H](O)C2", "note": "[epigallocatechin]", "values": [{"measurement": "stimulating CFTR function (as potentiator)", "setting": "ΔF508-CFTR [3]", "result": "as effective as genistein in stimulating CFTR function"}]}, {"compound": "O=c1c(-c2ccc(O)cc2)coc2cc(O)cc(O)c12", "note": "[genistein]", "values": [{"measurement": "epithelial protein phosphorylation", "setting": "[5]; 30 min pulse followed by 4 h PA-LPS, no pre-treatment", "result": "not effective in reducing epithelial protein phosphorylation"}, {"measurement": "signs of lung inflammation after genistein pulse and aerosolized PA-LPS", "setting": "Cftr^F508del mice; mice not pretreated with cystamine", "result": "had no effect on its own"}, {"measurement": "signs of lung inflammation after genistein pulse and aerosolized PA-LPS", "setting": "Cftr^F508del mice; mice pre-treated with aerosolized cystamine one week, one week without treatment", "result": "significantly reduced the signs of lung inflammation"}, {"measurement": "signs of lung inflammation", "setting": "Cftr^F508del mice", "result": "not effective"}]}, {"compound": "O=c1c(O)c(-c2ccc(O)c(O)c2)oc2cc(O)cc(O)c12", "note": "[quercetin]", "values": [{"measurement": "stimulating CFTR function (as potentiator)", "setting": "ΔF508-CFTR [3]", "result": "as effective as genistein in stimulating CFTR function"}]}, {"compound": "COc1cc(C2Oc3cc([C@H]4Oc5cc(O)cc(O)c5C(=O)[C@@H]4O)ccc3OC2CO)ccc1O", "note": "(some centres unmarked) [silybin]", "values": [{"measurement": "stimulating CFTR function (as potentiator)", "setting": "ΔF508-CFTR [3]", "result": "as effective as genistein in stimulating CFTR function"}]}, {"compound": "catechin", "values": [{"measurement": "stimulating CFTR function (as potentiator)", "setting": "ΔF508-CFTR [3]", "result": "as effective as genistein in stimulating CFTR function"}]}]}
